Laboratory results taken from patent US20100190151A1 (priority 2003, published 2010).

Test system: DNA polymerase
Conditions: surface-anchored primer/template DNA, stepwise reactions, FIG. 2(b); Cy5-dCTP detected by spFRET with Cy3-dUTP
Experimental: FIG. 2a(1) is an image of the slide surface: Annealed primer/template DNA molecules detected by Cy3 fluorescence from the labeled primer. Scale bar, 10 µm. […] FIG. 2a(3) is an image of the slide surface: Labeled nucleotide fluorescence after successful incorporation by DNA polymerase. Note; prior to the incorporation reaction, the primer fluorescence shown in FIG. 2a(1) was photo-bleached. After incubation of template DNA molecules with DNA polymerase and a labeled dNTP, the sequencing chamber was flushed to prevent fluorescent detection of unincorporated labeled dNTPs. […] FIG. 2a(5) is an overlay of the primer/template positions with the labeled nucleotide positions.
Observations of single-molecule fluorescence can be made using a conventional microscope equipped with total internal reflection (TIR) illumination. […] First, the surface of a quartz slide is chemically treated to specifically anchor template nucleic acid molecules while preventing non-specific binding of labeled dNTPs present in the sequencing reaction. A plastic flow cell is then attached to the surface of the slide to facilitate the exchange of buffers and reagents. Next, biotinylated oligonucleotides, serving as sequencing templates, are annealed to a fluorescently labeled primer. Template nucleic acid molecules are bound to the slide surface via streptavidin and biotin at a surface density low enough to resolve single nucleic acid molecules. The primed templates are detected via their fluorescent tags and their locations are recorded for future reference. After noting the location of each template nucleic acid molecule, their fluorescent tags are photo-bleached. Labeled dNTPs and polymerase (or polymerizing agent) are then washed in and out of the flow cell, one dNTP at a time, while the known locations of the template nucleic acid molecules are monitored for fluorescence, an indication that the primer annealed to the template nucleic acid molecule had been extended by one labeled nucleotide.

Compound	incorporation of labeled dNTP by DNA polymerase (selectivity and fidelity)
CCN1/C(=C/C=C/C2=[N+](CCCCCC(=O)NCC#Cc3cn(C4CC(O)C(COP(=O)([O-])OP(=O)([O-])OP(=O)([O-])[O-])O4)c(=O)nc3N)c3cc(S(=O)(=O)O)ccc3C2(C)C)C(C)(C)c2ccc(S(=O)(=O)[O-])cc21.[Li+].[Li+].[Li+].[Li+] (stereo not shown) [Cy3-dCTP]	correctly refusing to incorporate
Cy3-dUTP	correctly incorporated
Cy5-dCTP	correctly incorporated
Cy5-dUTP	correctly refusing to incorporate
